Data on seven compounds can be found in US4560684A, “1,4-Benzodiazepine derivatives” (priority 1982, dated 1985).

The structures appear in SMILES notation. Counter-ions that a name gives are not always drawn. Like-named read-outs stand apart in the source and are kept apart here.

For orientation: ED50 means the midpoint of the dose-response relation.

Test [1] deals with tetrabenazine (TBZ) induced ptosis. Description: Antagonism to the tetrabenazine (TBZ) induced ptosis. It counts as in vivo, DS male mice. Conditions: Mus musculus, sc, read-out: Anti-TBZ ptosis (ED50). The method, then:
(§1) Each compound was used in the form of 0.5 to 1% suspension made by mixing
(§2) with its half volume of arabic gum.
**Antagonism to the tetrabenazine (TBZ) induced ptosis: To several groups
of DS male mice in 4 to 5 weeks age, each group consisting of 5 mice was
subcutaneously administered the test compound. Half an hour later, 50
mg/kg of tetrabenazine was subcutaneously administered. Degree of the
ptosis in 1 hour was scored, and the result was subjected to the rigid
conversion. The ED50 value was obtained from the regression

Test [2] deals with pentylenetetrazole (PTZ) induced convulsion. Description: Antagonism to the pentylenetetrazole (PTZ) induced convulsion. It counts as in vivo, ddy male mice. Conditions: Mus musculus, read-out: Anti-PTZ convulsion (ED50). The method, then:
as §1, §2
***Antagonism to the pentylenetetrazole (PTZ) induced convulsion: To
several groups of ddy male mice in 4 to 5 weeks age, each group consistin
of 8 mice was orally administered the test compound. Half an hour later,
125 mg/kg of pentylenetetrazole was subcutaneously administered, and the
number of mice surviving during 2 hours was observed. The ED50 value
was obtained from the survival number according to the probit method.

The mark [3] stands for this setting: DS male mice, subcutaneous, half an hour before tetrabenazine 50 mg/kg s.c., ptosis scored in 1 hour.
The mark [4] stands for this setting: ddy male mice, oral, half an hour before pentylenetetrazole 125 mg/kg s.c., survival during 2 hours.

As for `CN1CCC(N2C(=O)CN=C(c3ccccc3)c3ccccc32)CC1` [Compound 6], the median effective dose (ED50) in test [1] (1 h) was 0.26 mg/kg; in test [2] (po, 2 h), greater than 20 mg/kg.
With `CN1CCC(N2C(=O)CN=C(c3ccccc3F)c3ccccc32)CC1` [Compound 8, 1-(1-methyl-4-piperidinyl)-1,3-dihydro-5-(2-fluorophenyl)-2H-1,4-benzdiazepin-2-one], the ED50 was 0.205 mg/kg in test [1] (1 h) and greater than 10 mg/kg in test [2] (po, 2 h).
As for `CN1CCC(N2C(=O)CN=C(c3ccccc3F)c3cc(Cl)ccc32)CC1` [Compound 10], the ED50 stood at 1.3 mg/kg in test [1] (1 h) and 0.77 mg/kg in test [2] (po, 2 h).
The like results for `Cc1ccc2c(c1)C(c1ccccc1F)=NCC(=O)N2C1CCN(C)CC1` [Compound 15] were, in that order, 0.839 mg/kg and greater than 10 mg/kg.
As for `O=C1CN=C(c2ccccc2F)c2cc(Cl)ccc2N1C1CCNCC1` [Compound 23, 7-chloro-1,3-dihydro-5-(2-fluorophenyl)-1-(4-piperidinyl)-2H-1,4-benzodiazepin-2-one], the ED50 in test [1] (setting [3]) was 0.075 mg/kg; in test [2] (setting [4]) it was 8.52 mg/kg.
For `O=C1CN=C(c2ccccc2)c2ccccc2N1C1CCNCC1` [Compound 26, 1-(4-piperidinyl)-1,3-dihydro-5-phenyl-2H-1,4-benzodiazepin-1-one hydrobromide] the same measures were 0.063 mg/kg and greater than 10 mg/kg.
With `CN(C)CCCN1c2ccccc2CCc2ccccc21` [imipramine, reference compound], the ED50 in test [1] (1 h) is 0.799 mg/kg; in test [2] (po, 2 h) it was greater than 10 mg/kg.
